Measured values: patent publication US12290596B2, “Compositions and methods for the treatment of opioid overdose” (priority 2021, dated 2025)

Columns and labels:
[1] = Example 14 safety: adverse events; details: Part 2
[2] = Two-period crossover pharmacokinetics of nalmefene 3 mg IN vs 1.0 mg IM (Example 12); details: for AUC(0-t) / AUC(0-inf) / Cmax / half-life: human, im, 1 mg; for AUC(0-inf): AUCinf; for half-life: T1/2, Treatment B: IM 1.0 mg nalmefene hydrochloride
[3] = Treatment A: 3.0 mg nalmefene hydrochloride IN, plasma, Max, n 66
[4] = Treatment A: 3.0 mg nalmefene hydrochloride IN, plasma, Min, n 66
[5] = Treatment B: 1.0 mg nalmefene IM (gluteal muscle), plasma, Max, n 68
[6] = Treatment B: 1.0 mg nalmefene IM (gluteal muscle), plasma, Min, n 68
[7] = Treatment B: IM 1.0 mg nalmefene hydrochloride, plasma, Geo. Mean, n=68
[8] = Treatment B: IM 1.0 mg nalmefene hydrochloride, plasma, Max, n=68
[9] = Treatment B: IM 1.0 mg nalmefene hydrochloride, plasma, Mean, n=68
[10] = Treatment B: IM 1.0 mg nalmefene hydrochloride, plasma, Median, n=68
[11] = Treatment B: IM 1.0 mg nalmefene hydrochloride, plasma, Min, n=68
[12] = plasma, GeoMean, Treatment B 1.0 mg IM (Ref)
[13] = plasma, Treatment B: IM 1.0 mg nalmefene hydrochloride, plasma, Geo. Mean, n=68
[14] = plasma, Treatment B: IM 1.0 mg nalmefene hydrochloride, plasma, Median, n=68

For `C=C1CC[C@@]2(O)[C@H]3Cc4ccc(O)c5c4[C@@]2(CCN3CC2CC2)[C@H]1O5` [Nalmefene, 17-cyclopropylmethyl-4,5α-epoxy-6-methylenemorphinan-3,14-diol], the “Number of TEAEs” value [1] was 172, the “Subjects reporting Grade 1 severity TEAEs” value [1] was 68.9% and the “Subjects reporting Grade 2 severity TEAEs” value [1] was 23.0%. The “Subjects reporting TEAEs” value [1] was 91.8%, the Subjects reporting headache [1] was 59.0% and the “Subjects who discontinued the study drug due to an AE” value [1] was 6.6%. For the same compound, the “Plasma concentrations compared to an intramuscular injection” value ([2]; 3 mg IN vs 1.0 mg IM, p<0.0001) was “significantly higher plasma concentrations”, the AUC0-5 min [2, 3] was 0.588 ng·h/mL and the AUC0-10 min [2, 3] was 2.78 ng·h/mL. The AUC0-15 min [2, 3] was 5.03 ng·h/mL, the AUC0-20 min [2, 3] was 6.79 ng·h/mL and the AUC0-30 min [2, 3] was 9.16 ng·h/mL. For the same compound, the “AUC0-[…]” value [2, 3] was 0.155 ng·h/mL, the AUC0-10 min [2, 4] was 0.0815 ng·h/mL and the AUC0-15 min [2, 4] was 0.196 ng·h/mL. For the same compound, the AUC0-30 min [2, 4] was 0.802 ng·h/mL, the AUC0-10 min [2, 5] was 0.631 ng·h/mL and the AUC0-15 min [2, 5] was 1.05 ng·h/mL. For the same compound, the AUC0-20 min [2, 5] was 1.33 ng·h/mL, the AUC0-30 min [2, 5] was 1.77 ng·h/mL and the “AUC0-[…]” value [2, 5] was 0.0249 ng·h/mL. The AUC0-15 min [2, 6] was 0.0218 ng·h/mL, the AUC0-20 min [2, 6] was 0.0402 ng·h/mL and the AUC0-30 min [2, 6] was 0.0845 ng·h/mL. It also gave an AUCExtrap [2, 7] of 3.94%, a CL/F [2, 7] of 59.6 L/h and a Kel [2, 7] of 0.0667 h⁻¹. The Tlast [2, 7] was 48.0 h, the AUCExtrap [2, 8] was 13.3% and the AUClast [2, 8] was 24.2 ng·h/mL. It also gave a CL/F [2, 8] of 91.8 L/h, a Kel [2, 8] of 0.0968 h⁻¹ and an AUCExtrap [2, 9] of 4.50%. For the same compound, the CL/F [2, 9] was 60.7 L/h, the Kel [2, 9] was 0.0677 h⁻¹ and the Tlast [2, 9] was 48.0 h. It also gave an AUCExtrap [2, 10] of 3.86%, a CL/F [2, 10] of 58.7 L/h and a Kel [2, 10] of 0.0695 h⁻¹. It also gave a Tlast [2, 10] of 48.0 h, an AUCExtrap [2, 11] of 1.13% and an AUClast [2, 11] of 10.5 ng·h/mL. The CL/F [2, 11] was 40.0 L/h, the Kel [2, 11] was 0.0394 h⁻¹ and the Tlast [2, 11] was 48.0 h. For the same compound, the AUC(0-t) ([2]; plasma, AUC0-5 min, GeoMean, Treatment B 1.0 mg IM (Ref)) was 0.01 ng·h/mL, the AUC(0-t) ([2]; plasma, AUC0-5 min, Treatment B: 1.0 mg nalmefene IM (gluteal muscle), plasma, Geo. Mean, n 68) was 0.0102 ng·h/mL and the AUC(0-t) ([2]; plasma, AUC0-5 min, Treatment B: 1.0 mg nalmefene IM (gluteal muscle), plasma, Mean, n 68) was 0.0181 ng·h/mL. For the same compound, the AUC(0-t) ([2]; plasma, AUC0-10 min, GeoMean, Treatment B 1.0 mg IM (Ref)) was 0.064 ng·h/mL, the AUC(0-t) ([2]; plasma, AUC0-10 min, Treatment B: 1.0 mg nalmefene IM (gluteal muscle), plasma, Geo. Mean, n 68) was 0.0639 ng·h/mL and the AUC(0-t) ([2]; plasma, AUC0-10 min, Treatment B: 1.0 mg nalmefene IM (gluteal muscle), plasma, Mean, n 68) was 0.0994 ng·h/mL. It also gave an AUC(0-t) ([2]; plasma, AUC0-10 min, Treatment B: 1.0 mg nalmefene IM (gluteal muscle), plasma, Median, n 68) of 0.0583 ng·h/mL, an AUC(0-t) ([2]; plasma, AUC0-15 min, GeoMean, Treatment B 1.0 mg IM (Ref)) of 0.142 ng·h/mL and an AUC(0-t) ([2]; plasma, AUC0-15 min, Treatment B: 1.0 mg nalmefene IM (gluteal muscle), plasma, Geo. Mean, n 68) of 0.142 ng·h/mL. For the same compound, the AUC(0-t) ([2]; plasma, AUC0-15 min, Treatment B: 1.0 mg nalmefene IM (gluteal muscle), plasma, Mean, n 68) was 0.2 ng·h/mL, the AUC(0-t) ([2]; plasma, AUC0-15 min, Treatment B: 1.0 mg nalmefene IM (gluteal muscle), plasma, Median, n 68) was 0.143 ng·h/mL and the AUC(0-t) ([2]; plasma, AUC0-20 min, GeoMean, Treatment B 1.0 mg IM (Ref)) was 0.228 ng·h/mL. For the same compound, the AUC(0-t) ([2]; plasma, AUC0-20 min, Treatment B: 1.0 mg nalmefene IM (gluteal muscle), plasma, Geo. Mean, n 68) was 0.228 ng·h/mL, the AUC(0-t) ([2]; plasma, AUC0-20 min, Treatment B: 1.0 mg nalmefene IM (gluteal muscle), plasma, Mean, n 68) was 0.299 ng·h/mL and the AUC(0-t) ([2]; plasma, AUC0-20 min, Treatment B: 1.0 mg nalmefene IM (gluteal muscle), plasma, Median, n 68) was 0.228 ng·h/mL. It also gave an AUC(0-t) ([2]; plasma, AUC0-30 min, GeoMean, Treatment B 1.0 mg IM (Ref)) of 0.405 ng·h/mL, an AUC(0-t) ([2]; plasma, AUC0-30 min, Treatment B: 1.0 mg nalmefene IM (gluteal muscle), plasma, Geo. Mean, n 68) of 0.405 ng·h/mL and an AUC(0-t) ([2]; plasma, AUC0-30 min, Treatment B: 1.0 mg nalmefene IM (gluteal muscle), plasma, Mean, n 68) of 0.491 ng·h/mL. It also gave an AUC(0-t) ([2]; plasma, AUC0-30 min, Treatment B: 1.0 mg nalmefene IM (gluteal muscle), plasma, Median, n 68) of 0.389 ng·h/mL, an AUC(0-t) ([2]; plasma, AUCLast, GeoMean, Treatment B 1.0 mg IM (Ref)) of 16 ng·h/mL and an AUC(0-inf) [2, 12] of 16.8 ng·h/mL. It also gave an AUC(0-inf) [2, 13] of 16.8 ng·h/mL, an AUC(0-inf) [2, 14] of 17 ng·h/mL and an AUC(0-t) ([2]; plasma, AUClast, Treatment B: IM 1.0 mg nalmefene hydrochloride, plasma, Geo. Mean, n=68) of 16 ng·h/mL. It also gave an AUC(0-t) ([2]; plasma, AUClast, Treatment B: IM 1.0 mg nalmefene hydrochloride, plasma, Mean, n=68) of 16.3 ng·h/mL, an AUC(0-t) ([2]; plasma, AUClast, Treatment B: IM 1.0 mg nalmefene hydrochloride, plasma, Median, n=68) of 15.9 ng·h/mL and a Cmax [2, 12] of 1.5 ng/mL. It also gave a Cmax [2, 13] of 1.5 ng/mL, a Cmax ([2]; plasma, Treatment B: IM 1.0 mg nalmefene hydrochloride, plasma, Mean, n=68) of 1.77 ng/mL and a Cmax [2, 14] of 1.52 ng/mL. It also gave a half-life ([2]; plasma, plasma, Geo. Mean, n=68) of 10.4 h, a half-life ([2]; plasma, plasma, Mean, n=68) of 10.6 h and a half-life ([2]; plasma, plasma, Median, n=68) of 9.98 h.
